By IC50 is commonly meant the point on the concentration scale where inhibition reaches its midpoint. Usually pIC50 stands for the negative decadic logarithm of the IC50, by convention in mol/L.

The values below come from article PMC6155426, “Metabolite Profiling of Eastern Teaberry (Gaultheria procumbens L.) Lipophilic Leaf Extracts with Hyaluronidase and Lipoxygenase Inhibitory Activity” (Molecules : A Journal of Synthetic Chemistry and Natural …, 2017).

pIC50: −log10 of the molar value.

The first assay deals with T1, bovine testis hyaluronidase (Bos taurus, UniProt Q2YDK3).
T1 construct: purchased Sigma-Aldrich; host or cells: bovine testis (tissue-derived preparation)
T1 sequence (Q2YDK3 36-553): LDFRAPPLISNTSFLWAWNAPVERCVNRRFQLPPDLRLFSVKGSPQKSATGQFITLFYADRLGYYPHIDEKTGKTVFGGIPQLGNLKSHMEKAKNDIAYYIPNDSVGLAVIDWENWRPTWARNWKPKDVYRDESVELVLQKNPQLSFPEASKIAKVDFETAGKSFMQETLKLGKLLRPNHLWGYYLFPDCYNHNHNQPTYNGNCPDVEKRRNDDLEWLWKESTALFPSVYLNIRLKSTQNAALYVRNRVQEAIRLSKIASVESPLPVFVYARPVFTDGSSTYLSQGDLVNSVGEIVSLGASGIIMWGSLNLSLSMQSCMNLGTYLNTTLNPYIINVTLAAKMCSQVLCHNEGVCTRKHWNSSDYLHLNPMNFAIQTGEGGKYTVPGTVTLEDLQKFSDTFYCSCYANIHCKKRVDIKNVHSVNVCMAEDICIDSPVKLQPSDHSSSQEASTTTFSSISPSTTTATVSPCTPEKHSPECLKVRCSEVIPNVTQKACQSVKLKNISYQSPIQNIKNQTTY
The experiment in a line: Hyaluronidase inhibition test (turbidimetric, 96-well). The class given is biochemical. Conditions: tested 100−1000 μg/mL, hyaluronic acid substrate, 37 °C, mean ± SD (n = 3 × 2). Here is the method: (§1) Heparin sodium salt was purchased from WZF Polfa (Warsaw, Poland). HPLC grade solvents (methanol and orthophosphoric acid) were from Avantor Performance Materials (Avantor PM, Gliwice, Poland). All other chemicals and solvents were of analytical grade and supplied by Avantor PM. In all analyses redistilled water was used. Enzymatic tests were done using 96-well plates and monitored using a Synergy 4 microplate reader (BioTek, Winooski, VT, USA). Column chromatography (CC) was performed on silica gel 60 G (0.2–0.5 mm, Macherey-Nagel, Düren, Germany). Analytical TLC was carried out on silica gel 60 G precoated plates (Merck, Warsaw, Poland) using horizontal DC chambers (Chromdes, Lublin, Poland). Flash chromatography was carried out on an Interchim puriFlash^TM 430evo chromatograph (Interchim Inc., San Pedro, CA, USA) equipped with a UV-Vis detector scanning in the wavelength range of 200–600 nm, a fraction collector, and Interchim puriFlash Silica HC (50 µm, 72 mm × 15 mm, 4 g) preparative columns. The flow rate was 7 mL/min. The mobile phase consisted of petroleum ether (A), chloroform (B), and methanol (C). A linear gradient system was used for elution (A:B:C): 0–9 min, 75:25:0 (v/v/v); 9–10 min, 49:49:2; 10–15 min, 45:45:10. Before injection, samples were dissolved in chloroform. Melting points (uncorrected) were determined on a Boetius apparatus (Carl Zeiss, Jena, Germany). UV-Vis spectra, before and after adding ionization and complexation reagents, were recorded at 25 °C on a UV-1601 Spectrophotometer (Rayleigh, Beijing, China) in methanol, according to Mabry et al.. ESI-MS spectra were measured on a UHPLC-3000 RS chromatograph (Dionex, Dreieich, Germany) equipped with a dual low-pressure gradient pump, an autosampler, a diode array detector, and an AmaZon SL ion trap mass spectrometer with an ESI interface (Bruker Daltonik, Bremen, Germany). IR spectra were recorded in KBr on a Bruker Alpha FT-IR spectrometer (Bruker Daltonik). Optical rotation ( [α]D20 ) was measured in chloroform on a PolAAr 3001 polarimeter (Optical Activity, Ramsey, UK). ^1H-NMR, ^13C-NMR, ^1H-^1H COSY, HMQC, and HMBC spectra were recorded at 25 °C on a Bruker Daltonik III 600 MHz spectrometer in CDCl3 and with TMS as the internal standard.
Inhibitory activity of the tested analytes (extracts and individual compounds) was determined by turbidimetric method adapted for 96-well microtiter plates as described previously. The protocol was started by adding 20 μL of the tested analyte solution in monosodium phosphate buffer (pH = 7.0) to 40 μL of hyaluronidase solution (22.55 U/mL) in monosodium phosphate buffer (pH = 7.0) and the mixture was incubated at 37.0 ± 0.1 °C in the dark for 10 min. After this time 40 μL of hyaluronic acid solution (0.03%, w/v) in monosodium phosphate buffer (pH = 5.35) was added and the mixture was further incubated at 37.0 ± 0.1 °C in the dark for 45 min. Finally 300 μL of bovine serum albumin solution (0.1%, w/v) in sodium acetate buffer (pH = 3.75) was added to the mixture and incubated in room temperature for 10 min. Changes in turbidity were measured at 600 nm. […] At each level three independent experiments were carried out in duplicate. Heparin was used as a positive control. Activity of the tested analytes was calculated as inhibition percentage (% Inhibition) of hyaluronidase according to the Equation (1): (1) % Inhibition=100×(1−(AHA−AAN/AHA−AHYAL)), where AHA—absorbance of solution without the enzyme, AHYAL—absorbance of solution without the tested analyte (negative control), AAN—absorbance of solution with the tested analyte.
With heparin [HP, reference compound], the “HYAL inhibitory activity (IC50)” value is 366.24 ± 14.72 µg/mL.

The same assay, now with this note: tested 100−1000 μg/mL, hyaluronic acid substrate, 37 °C, mean ± SD (n = 3 × 2); read-out: HYAL inhibitory activity (IC50) (converted).
With `COC(=O)c1ccccc1` [BM, methyl benzoate], the IC50 was 5700 µM. On the same count and under the same terms, the result for `COc1cc2oc(-c3ccc(O)cc3)c(OC)c(=O)c2c(O)c1C` [DL, 4′,5-dihydroxy-3,7-dimethoxy-6-methylflavone] reads 1320 µM. Same read-out and setting: under `CCCCCCCCCCCCCCCCCCCCCC` [DOC, docosane] stands over 3220 µM; under `COc1cc2oc(-c3ccc(O)cc3)cc(=O)c2c(O)c1C` [DS, 4′,5-dihydroxy-7-methoxy-6-methylflavone], 1570 µM.

`COC(=O)c1ccccc1O` [SM, methyl salicylate]: the concentration for half-maximal inhibition (IC50) is 5220 µM. In the case of `C[C@H]1[C@H](C)CC[C@]2(C(=O)O)CC[C@]3(C)C(=CC[C@@H]4[C@@]5(C)CC[C@H](O)C(C)(C)[C@@H]5CC[C@]43C)[C@H]12` [UA, ursolic acid], the concentration for half-maximal inhibition (IC50) is 832 µM. For `CC1=CC(=O)CC(C)(C)C1(O)C=CC(C)O` [VO, (6S,9R)-6-hydroxy-3-oxo-α-ionol], the IC50 is 1590 µM. Still for that read-out and setting: under `CC[C@H](CC[C@@H](C)[C@H]1CC[C@H]2[C@@H]3CC=C4C[C@@H](O)CC[C@]4(C)[C@H]3CC[C@]12C)C(C)C` [β-SIT, β-sitosterol] stands 1650 µM.

The same assay, now with this note: tested concentration range 100−1000 μg/mL.
Consider `CCCCCCCCCCCCCCCCCCCCCC` [DOC, docosane], for which the “inhibitory activity towards hyaluronidase in the tested concentration range” value is on record as “no inhibitory activity”.

The target of a further assay is T2, lipoxygenase from soybean (Glycine max, UniProt P08170).
T2 construct: purchased Sigma-Aldrich; host or cells: soybean (plant-derived preparation)
T2 sequence (P08170 1-839): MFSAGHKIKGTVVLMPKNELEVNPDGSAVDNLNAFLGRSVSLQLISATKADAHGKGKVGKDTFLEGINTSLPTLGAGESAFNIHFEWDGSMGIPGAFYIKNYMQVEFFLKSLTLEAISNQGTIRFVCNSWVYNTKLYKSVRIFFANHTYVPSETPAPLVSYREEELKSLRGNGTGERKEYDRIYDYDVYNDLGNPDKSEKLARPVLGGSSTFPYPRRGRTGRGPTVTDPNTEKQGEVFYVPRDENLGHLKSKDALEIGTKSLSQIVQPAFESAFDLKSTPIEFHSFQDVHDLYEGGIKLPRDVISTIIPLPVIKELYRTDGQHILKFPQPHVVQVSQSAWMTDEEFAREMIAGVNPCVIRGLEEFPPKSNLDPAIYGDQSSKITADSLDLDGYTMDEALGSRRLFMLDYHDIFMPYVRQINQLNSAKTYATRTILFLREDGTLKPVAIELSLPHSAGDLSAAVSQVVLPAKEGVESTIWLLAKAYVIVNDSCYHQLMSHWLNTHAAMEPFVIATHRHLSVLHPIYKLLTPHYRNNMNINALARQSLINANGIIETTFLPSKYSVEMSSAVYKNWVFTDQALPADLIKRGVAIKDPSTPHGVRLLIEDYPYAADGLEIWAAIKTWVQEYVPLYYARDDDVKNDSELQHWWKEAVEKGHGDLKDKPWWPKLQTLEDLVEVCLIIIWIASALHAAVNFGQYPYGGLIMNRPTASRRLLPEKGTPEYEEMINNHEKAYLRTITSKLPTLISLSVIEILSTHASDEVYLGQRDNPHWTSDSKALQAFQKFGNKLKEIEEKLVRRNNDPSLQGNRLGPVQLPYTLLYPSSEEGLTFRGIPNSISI
In words: Lipoxygenase inhibition test (spectrophotometric, 96-well). The class given is biochemical.
Conditions: not given
The method, then: as §1
Inhibitory activity of the tested analytes (extracts and individual compounds) was determined by a spectrophotometric method adjusted to a 96-well microtiter plates according to Granica et al.. The protocol was started by adding 50 μL of the tested analyte solution in sodium borate buffer (pH = 9.0), then 50 μL of linoleic acid solution (134 μM) was added, followed by 50 μL of lipoxygenase solution (167 U/mL) in sodium borate buffer (pH = 9.0). The reaction mixture was vigorously shaken and changes in absorbance were measured at 234 nm over a period of 15 min with 1 min intervals. […] At each level three independent experiments were carried out in duplicate. Indomethacin was used as a positive control. Activity of the tested analytes was calculated as inhibition percentage (% Inhibition) of lipoxygenase according to Equation (2): (2) % Inhibition=100×(1−(AAN−ALA/ALOX)), where AAN—absorbance of solution with the tested analyte, ALA—absorbance of solution without the enzyme, ALOX—absorbance of solution without the tested analyte (negative control). The absorbance value in the 10th minute of the reaction were used for the calculation.
In the case of `COC(=O)c1ccccc1` [BM, methyl benzoate], the pIC50 is 2.56. The same measure, in the same setting: under `CC1(C)CC[C@]2(C(=O)O)CC[C@]3(C)C(=CC[C@@H]4[C@@]5(C)CC[C@H](O)C(C)(C)[C@@H]5CC[C@]43C)[C@@H]2C1` [OA, oleanolic acid] stands 2.69; under `C[C@H]1[C@H](C)CC[C@]2(C(=O)O)CC[C@]3(C)C(=CC[C@@H]4[C@@]5(C)CC[C@H](O)C(C)(C)[C@@H]5CC[C@]43C)[C@H]12` [UA, ursolic acid], 2.79.

Staying with this assay, now noted: tested 50−1000 μg/mL, linoleic acid substrate, pH 9.0, mean ± SD (n = 3 × 2); read-out: LOX inhibitory activity (IC50) (converted).
In the case of `COc1cc2oc(-c3ccc(O)cc3)c(OC)c(=O)c2c(O)c1C` [DL, 4′,5-dihydroxy-3,7-dimethoxy-6-methylflavone], the IC50 was 920 µM. Same read-out and setting: the result for `CCCCCCCCCCCCCCCCCCCCCC` [DOC, docosane] reads 2640 µM; that for `COc1cc2oc(-c3ccc(O)cc3)cc(=O)c2c(O)c1C` [DS, 4′,5-dihydroxy-7-methoxy-6-methylflavone], 1120 µM; that for `COc1ccc2c(c1)c(CC(=O)O)c(C)n2C(=O)c1ccc(Cl)cc1` [IND, indomethacin, reference compound], 259 µM.

Take `COC(=O)c1ccccc1O` [SM, methyl salicylate]: the half-inhibitory concentration (IC50) was 2570 µM. On the same count and under the same terms, under `CC1=CC(=O)CC(C)(C)C1(O)C=CC(C)O` [VO, (6S,9R)-6-hydroxy-3-oxo-α-ionol] stands 540 µM; under `CC[C@H](CC[C@@H](C)[C@H]1CC[C@H]2[C@@H]3CC=C4C[C@@H](O)CC[C@]4(C)[C@H]3CC[C@]12C)C(C)C` [β-SIT, β-sitosterol], 1910 µM.
